# Experimental data reported in patent publication US20230407296A1, “Method to Regulate ALOX12-AS1 IncRNA-Mediated Alteration of ALOX12 Protein and to Screen for Novel Drugs to Alter ALOX12 Protein Level” (priority 2021, published 2023).
# Test system: ALOX12-AS1-202
# Assay: Multiplex RT-PCR of ALOX12-AS1-202 in TPA-treated THP-1 derived MLCs
# Type: cell-based, human
# Settings: TPA treated (72 hours) MLCs vs vehicle treated THP-1 cells
# Method: Phorbol ester (12-O-Tetradecanoylphorbol 13-acetate: TPA) is an activator of protein kinase C (PKC) that has been frequently used for inducing the differentiation of different cell types, including myeloid cells. Activation of human monocytic cells affects ALOX expression. Therefore, we induced differentiation of monocytic THP-1 cells to macrophage-like cells (MLCs) with 100 nM TPA [91, 92] and monitored the ALOX12 protein level as well as nucleo-cytoplasmic translocation of ALOX12-AS1-201. […] We concurrently monitored expression of the integrin subunit a M (ITGAM), also known as CD11b, which regulates myeloid cell polarization and is expressed in macrophages to facilitate adhesion, migration, chemotaxis, and accumulation during inflammation. […]
# Total RNA from different cell lines was extracted with Trizol reagent (Catalog number: 15596026; ThermoFisher Scientific, Canada) as per the manufacturer's recommended protocol. […] Absolute quantification of ALOX12-AS1 lncRNA isoforms was performed in a Mastercycler®ep realplex real-time PCR system (Eppendorf, Hamburg, Germany) using SYBR green dye (Catalog number: S7563; ThermoFisher Scientific). […] Real-time PCR data quality control calculations were determined by the SAS program as described previously and the calculated PCR efficiency was between 95%-99%. […] Results were expressed as copy number of specific isoforms per 100 ng of total RNA.
smiles,measurement,value
"CCCCCCCCCCCCCC(=O)O[C@@H]1[C@@H](C)[C@@]2(O)[C@@H](C=C(CO)C[C@]3(O)C(=O)C(C)=C[C@@H]23)[C@@H]2C(C)(C)[C@]12OC(C)=O [TPA, 12-O-Tetradecanoylphorbol 13-acetate]",ALOX12-AS1-202 level,dramatic reduction
